One test concerns the target cGMP-PDE (Homo sapiens, UniProt O76074). Description: Inhibitory effect on cGMP-PDE. Conditions: PDE IC isolated from human platelets; 3H-cGMP substrate 0.2 mM; pH 8.0; DMSO 2.5%. The test is classed as biochemical.
A further test concerns the target T1, TXA2 synthetase (Rattus norvegicus, UniProt P49430).
T1 construct: whole blood was collected from abdominal aorta; from tissue; host or cells: freshly drawn heparinized whole blood of male Wistar rats
T1 sequence (P49430 1-533): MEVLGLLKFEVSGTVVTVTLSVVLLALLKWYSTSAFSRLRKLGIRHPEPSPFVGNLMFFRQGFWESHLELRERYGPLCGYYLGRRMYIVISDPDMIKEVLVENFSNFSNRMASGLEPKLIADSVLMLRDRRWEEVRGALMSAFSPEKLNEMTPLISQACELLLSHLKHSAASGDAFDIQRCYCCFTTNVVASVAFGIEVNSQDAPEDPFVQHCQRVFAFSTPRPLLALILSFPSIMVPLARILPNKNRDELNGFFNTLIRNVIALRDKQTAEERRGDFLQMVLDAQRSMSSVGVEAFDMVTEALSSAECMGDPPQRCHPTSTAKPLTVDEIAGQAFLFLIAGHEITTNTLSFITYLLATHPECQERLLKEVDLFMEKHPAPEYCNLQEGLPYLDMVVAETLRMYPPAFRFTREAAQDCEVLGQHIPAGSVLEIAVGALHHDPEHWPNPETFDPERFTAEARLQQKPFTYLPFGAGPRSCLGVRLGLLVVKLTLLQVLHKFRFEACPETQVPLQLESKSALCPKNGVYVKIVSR
Put plainly: Inhibitory effect on TXA2 synthetase (TXB2 synthesis in A23187-stimulated heparinized whole blood). Format: cell-based, Male Wistar rats. Conditions: 37° C, Ca ionophore A23187 30 μM, TXB2 by EIA. How it is done:
Male Wistar rats were starved overnight. Five hundreds microliter of heparinized (10 U/mL) whole blood was collected from abdominal aorta using polyethylene syringe (needle: 22 or 26G). The blood freshly drawn from animal was preincubated with 5 μL of test compound at 37° C. Five minutes later, 2.5 μL of 6 mM of Ca ionophore A23187 (final concentration of 30 μM) was added into tube, and incubation mixture was further incubated for 15 min. The reaction was terminated by centrifugation of tubes at 12,000 rpm for 2 min. TXB2 content in the supernatant was determined by EIA as follows.
One milliliter of 0.5M glycine-HCl buffer (pH 3.2) was added to 100 μL of sample. The samples were mixed well and centrifuged at 1,700 G for 10 min at 4° C. The extracted supernatant was applied to a SEP-PAK (registered Trade Mark) C18 cartridge (Waters Assoc.). After washing with 10 mL of distilled water followed by 10 mL each of 15% ethanol and petroleum ether, the sample was eluted with 3 mL of ethyl acetate. The ethyl acetate fraction was evaporated to dryness under gentle N2 stream and the residue was dissolved in EIA buffer (final volume of 1 mL) following the addition of 300 μL of 0.01M NaHCO3 -NaOH buffer (pH 10.0). EIA for TXB2 was carried out according to a legend attached to the kit (Chyman Chemical Co., Inc.). Overall recovery of TXB^2 in this extraction procedure was 90%. […]

Here are results for six molecules from patent US5436233A, “4-aminoquinazoline derivatives” (Ono Pharmaceutical Co., Ltd., priority 1993, dated 1995).

The structures appear in SMILES notation. Counter-ions that a name gives are not always drawn.

Procedure for cGMP-PDE: Typically, connective tissue and adventitia were removed and 1-2 units of platelets were suspended in 10 volumes of buffer A (20 mM Tris-HCl, pH 7.5, containing 2 mM magnesium acetate, 1 mM dithiothreitol, and 5 mM Na2EDTA) using a Brinkman polytron. The proteinase inhibitors leupeptin, pepstatin A, and phenylmethyl-sulfonyl fluoride (PMSF) were also included in this buffer (final concentration of 100 nM each). The homogenate was centrifuged at 100,000g for 60 minutes. The supernatant was then removed and filtered through four layers of cheesecloth. The supernatant was applied to a DWAE-Trisacryl M column. The column was washed with several bed volumes of buffer B (20 mM Tris-HCl, pH 7.5, containing 2 mM magnesium acetate, 1 mM dithiothreitol, and proteinase inhibitors) and eluted by two successive linear NaCl gradients (0.05-0.15M, 300 ml total; 0.15-0.40M, 200 ml total). Five milliliter fractions were collected and assayed for cyclic GMP PDE activity.
The concentration of substrate (^3 H-cGMP) was 0.2 mM. Compounds of the present invention were dissolved in dimethyl sulfoxide (DMSO) at a final concentration of 2.5%. This concentration of DMSO inhibited enzyme activity by approximately 10%.

At cGMP-PDE, `C#Cc1ccc2nc(-n3ccnc3)nc(NCc3ccccc3)c2c1` [18(b), 2-(1-imidazolyl)-4-phenylmethylamino-6-ethynylquinazoline dihydrochloride] came in with an IC50 of 0.53 nM. In other words, the sub-nanomolar range.
Take `C#Cc1ccc2nc(-n3ccnc3)nc(NCCOC)c2c1` [Example 18, 6-ethynyl-4-(2-methoxyethyl)amino-2-(1-imidazolyl)quinazoline]: the results for the IC50 at cGMP-PDE and against TXA2 synthetase were 46 nM and 2400 nM, respectively.
Consider `c1ccc(CNc2nc(Cn3ccnc3)nc3ccccc23)cc1` [6(b), 4-phenylmethylamino-2-((1-imidazolyl)methyl)quinazoline dihydrochloride], for which the IC50 at cGMP-PDE came out at 300 nM.
`C(=C\c1nc(NCc2ccccc2)c2ccccc2n1)/c1cccnc1` [Example 7, 4-phenylmethylamino-2-(2-(3-pyridyl)vinyl)quinazoline] yielded an IC50 against cGMP-PDE of 200 nM.
On the same count and under the same terms, the result for `CN(C)c1ccc(CNc2nc(-c3cccnc3)nc3ccccc23)cc1` [3(o), 4-(4-(N,N-dimethylamino)phenylmethyl)amino-2-(3-pyridyl)quinazoline trihydrochloride] reads 2400 nM; that for `CN(C)S(=O)(=O)c1ccc2nc(-n3ccnc3)nc(NCc3ccccc3)c2c1` [6(j), 6-dimethylaminosulfonyl-4-phenylmethylamino-2-(1-imidazolyl)quinazoline hydrochloride], 135 nM.

Broadly, the IC50 is the concentration that gives 50% inhibition. Read a high IC50 as weaker potency in that assay.
